Patent US5574012A, “Analogs of hirudin having anti-platelet activity” (Merrell Pharmaceuticals Inc., priority 1995, dated 1996)

Assays:
platelets = experiment: Dog antiplatelet IC50; assay type: cell-based
thrombin = thrombin (Bos taurus, UniProt P00735); experiment: biochemical; conditions: bovine; read-out: Bovine Antithrombin IC50

SMILES	IC50 (platelets)	IC50 (thrombin)
CC[C@H](C)[C@H](NC(=O)[C@@H]1CCCN1C(=O)[C@H](CCC(=O)O)NC(=O)[C@H](Cc1c[nH]c2ccccc12)NC(=O)[C@H](CC(=O)O)NC(=O)CNC(=O)CCCCN)C(=O)N1CCC[C@H]1C(=O)N[C@@H](CCC(=O)O)C(=O)N[C@@H](CCC(=O)O)C(=O)N[C@@H](C)C(=O)N[C@@H](CC1CCCCC1)C(=O)N[C@H](CCC(=O)O)C(=O)O [Example 2]	250 µM	–
CC[C@H](C)[C@H](NC(=O)[C@@H]1CCCN1C(=O)[C@H](CCC(=O)O)NC(=O)[C@H](Cc1c[nH]c2ccccc12)NC(=O)[C@H](CC(=O)O)NC(=O)CNC(=O)[C@@H](N)CCCNC(=N)N)C(=O)N1CCC[C@H]1C(=O)N[C@@H](CCC(=O)O)C(=O)N[C@@H](CCC(=O)O)C(=O)N[C@@H](C)C(=O)N[C@@H](CC1CCCCC1)C(=O)N[C@H](CCC(=O)O)C(=O)O [Example 3]	–	2.8 µM
